Measured values: patent publication US8829029B2, “Dual modulators of 5HT2A and D3 receptors” (Hoffmann-La Roche Inc., priority 2008, dated 2014)

Legend:
[1] = molecular target: human 5-HT2A serotonin receptor (Homo sapiens (Human), UniProt P28223); experiment: Radioligand binding ([3H]-ketanserin) to cloned human 5-HT2A receptor expressed in HEK-293 EBNA cells; details: membranes of transfected HEK-293 EBNA cells, 1.1 nM [3H]-ketanserin, 1 h at RT
Protocol: The ability of the compounds to bind to the 5-HT2A, D3 and D2 receptors was determined using radioligand binding to cloned receptors selectively expressed in HEK-293 EBNA cells.
(§1) HEK-293 EBNA cells were transiently transfected with expression plasmids encoding for the human D2 or D3 dopamine- or for the human 5-HT2A serotonin receptor, respectively. The cells were harvested 48 h post-transfection, washed three times with cold PBS and stored at −80° C. prior to use. The pellet was suspended in cold 50 mM Tris-HCl buffer containing 10 mM EDTA (pH 7.4) and homogenized with a Polytron (Kinematica AG, Basel, Switzerland) for 20-30 sec at 12,000 rpm. After centrifugation at 48,000×g for 30 min at 4° C., the pellet was resuspended in cold 10 mM Tris-HCl buffer containing 0.1 mM EDTA (pH 7.4), homogenized, and centrifuged as above. This pellet was further resuspended in a smaller volume of ice cold 10 mM Tris-HCl buffer containing 0.1 mM EDTA (pH 7.4) and homogenized with a Polytron for 20-30 sec at 12,000 rpm. The protein content of this homogenate was determined with the Bio-Rad (Bradford) Protein Assay (Biorad Laboratories GmbH, München, Germany) according to the instructions of the manufacturer using gamma globulin as the standard. This homogenate was stored at −80° C. in aliquots and thawed immediately prior to use.
Aliquots of membrane preparations were thawed at RT, resuspended in assay buffer (D2, D3: 50 mM Tris-HCl, 120 mM NaCl, 5 mM MgCl2, 1 mM EDTA, 5 mM KCl, 1.5 mM CaCl2, pH=7.4; 5-HT2A: 50 mM Tris-HCl, 10 mM MgCl2, 1 mM EGTA, pH=7.4), homogenized with a Polytron for 20-30 sec at 12,000 rpm and adjusted to a final concentration of approximately 7.5 μg protein/well (D2, D3) and 15 μg protein/well (5-HT2A), respectively.
(§2) The binding affinity (Ki) of the compounds was determined using radioligand binding. Membranes were incubated in a total volume of 200 μl with a fixed concentration of radioligand (final concentration approximately 0.7 nM [^3H]-spiperone for D2, 0.5 nM [^3H]-spiperone for D3, and 1.1 nM [^3H]-ketanserin for 5-HT2A) and ten concentrations of test compound in ranging between 10 μM-0.1 nM for 1 h at RT. At the end of the incubation, the reaction mixtures were filtered on to unifilter 96-well white microplates with bonded GF/C filters (Packard BioScience, Zürich, Switzerland; preincubated for 1 h in 0.1% polyethylenimine (PEI) in assay buffer) with a Filtermate 196 harvester (Packard BioScience) and washed 3 times with cold assay buffer. The nonspecific binding was determined with equally composed reaction mixtures in the presence of 10 μM unlabelled spiperone. Per well 45 μl of Microscint 40 (Perkin Elmer, Schwerzenbach, Switzerland) was added, plates for sealed, shaken for 20 min and counted for 3 min on a Topcount Microplate Scintillation Counter (Canberra Packard SA, Zürich, Switzerland) with quenching correction.
(§3) The CPM value for each duplicate of a concentration of competing compound was averaged (y1), then the % specific binding was calculated according to the equation (((y1−non-specific)/(total binding−non-specific))×100). Graphs were plotted with the % specific binding using XLfit, a curve fitting program that iteratively plots the data using Levenburg Marquardt algorithm. The single site competition analysis equation used was y=A+((B−A)/(1+((x/C)^D))), where y is the % specific binding, A is the minimum y, B is the maximum y, C is the IC50, x is the log10 of the concentration of the competing compound and D is the slope of the curve (the Hill Coefficient). From these curves the IC50 (inhibition concentration at which 50% specific binding of the radioligand was displaced) and Hill coefficient were determined. The affinity constant (Ki) was calculated using the Cheng-Prusoff equation Ki=(IC50/1+([L]/Kd), where [L] is the concentration of radioligand and Kd is the dissociation constant of the radioligand at the receptor as determined by the saturation isotherm.

[2] = molecular target: human D3 dopamine receptor (Homo sapiens (Human), UniProt P35462); experiment: Radioligand binding ([3H]-spiperone) to cloned human D3 receptor expressed in HEK-293 EBNA cells; details: membranes of transfected HEK-293 EBNA cells, 0.5 nM [3H]-spiperone, 1 h at RT
Protocol: as §1, with “The pellet was suspended in cold 50 mM Tris-HCl buffer containing 10 mM EDTA (pH 7.4) and homogenized with a Polytron (Kinematica AG, Basel, Switzerland) for 20-30 sec at 12,000 rpm.” left out, “This pellet was further resuspended in a smaller volume of ice cold 10 mM Tris-HCl buffer containing 0.1 mM EDTA (pH 7.4) and homogenized with a Polytron for 20-30 sec at 12,000 rpm.” left out
as §2, §3

Sequence of human D3 dopamine receptor (P35462 whole entry): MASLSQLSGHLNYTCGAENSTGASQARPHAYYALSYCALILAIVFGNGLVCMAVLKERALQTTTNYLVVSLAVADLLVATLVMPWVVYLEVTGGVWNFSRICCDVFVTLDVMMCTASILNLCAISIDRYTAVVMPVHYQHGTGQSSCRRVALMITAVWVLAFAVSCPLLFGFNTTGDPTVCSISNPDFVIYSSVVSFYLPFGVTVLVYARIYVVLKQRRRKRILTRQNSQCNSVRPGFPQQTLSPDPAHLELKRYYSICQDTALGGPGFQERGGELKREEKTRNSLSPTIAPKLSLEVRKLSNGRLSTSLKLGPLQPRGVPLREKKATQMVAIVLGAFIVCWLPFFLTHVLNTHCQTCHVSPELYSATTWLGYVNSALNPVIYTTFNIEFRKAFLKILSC

SMILES	Ki [1]	Ki [2]
CC(=O)N[C@H]1CC[C@H](CCN2CCC(c3noc4cc(F)ccc34)CC2)CC1 [Example 1, 4N-trans(4-{2-[4-(6-Fluoro-benzo[d]isoxazol-3-yl)-piperidin-1-yl]-ethyl}-cyclohexyl)-acetamide]	2.22 nM	4.96 nM
O=C(N[C@H]1CC[C@H](CCN2CCC(c3noc4cc(F)ccc34)CC2)CC1)C1CCOCC1 [Example 2, Tetrahydro-pyran-4-carboxylic acid trans(4-{2-[4-(6-fluoro-benzo[d]isoxazol-3-yl)-piperidin-1-yl]-ethyl}-cyclohexyl)-amide]	1.74 nM	9.74 nM
COCCC(=O)N[C@H]1CC[C@H](CCN2CCC(c3noc4cc(F)ccc34)CC2)CC1 [Example 3, N-trans (4-{2-[4-(6-Fluoro-benzo[d]isoxazol-3-yl)-piperidin-1-yl]-ethyl}-cyclohexyl)-3-methoxy-propionamide]	1.81 nM	4.75 nM
O=C(N[C@H]1CC[C@H](CCN2CCC(c3noc4cc(F)ccc34)CC2)CC1)c1ccc(N2CCOCC2)cc1 [Example 4, N-trans-(4-{2-[4-(6-Fluoro-benzo[d]isoxazol-3-yl)-piperidin-1-yl]-ethyl}-cyclohexyl)-4-morpholin-4-yl-benzamide]	9.52 nM	–
O=C(N[C@H]1CC[C@H](CCN2CCC(c3noc4cc(F)ccc34)CC2)CC1)c1ccc(N2CCOCC2)nc1 [Example 4A, N-Trans (4-{2-[4-(6-Fluoro-benzo[d]isoxazol-3-yl)-piperidin-1-yl]-ethyl}-cyclohexyl)-6-morpholin-4-yl-nicotinamide]	2.7 nM	7.95 nM
O=C(N[C@H]1CC[C@H](CCN2CCC(c3noc4cc(F)ccc34)CC2)CC1)c1cnc(N2CCOCC2)cn1 [Example 4B, 5-Morpholin-4-yl-pyrazine-2-carboxylic acid trans (4-{2-[4-(6-fluoro-benzo[d]isoxazol-3-yl)-piperidin-1-yl]-ethyl}-cyclohexyl)-amide]	3.81 nM	19.4 nM
O=C(N[C@H]1CC[C@H](CCN2CCC(c3noc4cc(F)ccc34)CC2)CC1)c1ccc(N2CCOCC2)nn1 [Example 4C, 6-Morpholin-4-yl-pyridazine-3-carboxylic acid-trans (4-{2-[4-(6-fluoro-benzo[d]isoxazol-3-yl)-piperidin-1-yl]-ethyl}-cyclohexyl)-amide]	3.18 nM	25.3 nM
O=C(N[C@H]1CC[C@H](CCN2CCC(c3noc4cc(F)ccc34)CC2)CC1)c1cnc(N2CCOCC2)nc1 [Example 4D, 2-Morpholin-4-yl-pyrimidine-5-carboxylic acid trans (4-{2-[4-(6-fluoro-benzo[d]isoxazol-3-yl)-piperidin-1-yl]-ethyl}-cyclohexyl)-amide]	2.45 nM	15.3 nM
O=C(N[C@H]1CC[C@H](CCN2CCC(c3noc4cc(F)ccc34)CC2)CC1)c1ccc(N2CCOCC2)c(F)c1 [Example 5, 3-Fluoro-N-trans (4-{2-[4-(6-fluoro-benzo[d]isoxazol-3-yl)-piperidin-1-yl]-ethyl}-cyclohexyl)-4-morpholin-4-yl-benzamide]	17.5 nM	45.3 nM
CN(C)c1ccc(C(=O)N[C@H]2CC[C@H](CCN3CCC(c4noc5cc(F)ccc45)CC3)CC2)cc1 [Example 6, 4-Dimethylamino-N-trans (4-{2-[4-(6-fluoro-benzo[d]isoxazol-3-yl)-piperidin-1-yl]-ethyl}-cyclohexyl)-benzamide]	11.4 nM	11.5 nM
O=C(Cc1ccc2c(c1)OCO2)N[C@H]1CC[C@H](CCN2CCC(c3noc4cc(F)ccc34)CC2)CC1 [Example 7, 2-Benzo[1,3]dioxo1-5-yl-N-trans (4-{2-[4-(6-fluoro-benzo[d]isoxazol-3-yl)-piperidin-1-yl]-ethyl}-cyclohexyl)-acetamide]	2.09 nM	4.02 nM
COc1ccc(C(=O)N[C@H]2CC[C@H](CCN3CCC(c4noc5cc(F)ccc45)CC3)CC2)cc1 [Example 8, N-trans-(4-{2-[4-(6-Fluoro-benzo[d]isoxazol-3-yl)-piperidin-1-yl]-ethyl}-cyclohexyl)-4-methoxy-benzamide]	3.65 nM	4.53 nM
CC(C)(C)Oc1ccc(C(=O)N[C@H]2CC[C@H](CCN3CCC(c4noc5cc(F)ccc45)CC3)CC2)cc1 [Example 9, 4-tert-Butoxy-N-trans (4-{2-[4-(6-fluoro-benzo[d]isoxazol-3-yl)-piperidin-1-yl]-ethyl}-cyclohexyl)-benzamide]	1.72 nM	3.42 nM
O=C(N[C@H]1CC[C@H](CCN2CCC(c3noc4cc(F)ccc34)CC2)CC1)c1ccc(Cl)cc1 [Example 10, 4-Chloro-N-trans (4-{2-[4-(6-fluoro-benzo[d]isoxazol-3-yl)-piperidin-1-yl]-ethyl}-cyclohexyl)-benzamide]	2.67 nM	3.5 nM
O=C(N[C@H]1CC[C@H](CCN2CCC(c3noc4cc(F)ccc34)CC2)CC1)c1ccc(N2CCS(=O)(=O)CC2)cc1 [Example 11, 4-(1,1-Dioxo-1,6-thiomorpholin-4-yl)-N-trans (4-{2-[4-(6-fluoro-benzo[d]isoxazol-3-yl)-piperidin-1-yl]-ethyl}-cyclohexyl)-benzamide]	2.48 nM	4.67 nM
O=C(N[C@H]1CC[C@H](CCN2CCC(c3noc4cc(F)ccc34)CC2)CC1)c1ccnc(N2CCOCC2)c1 [Example 12, N-trans (4-{2-[4-(6-Fluoro-benzo[d]isoxazol-3-yl)-piperidin-1-yl]-ethyl}-cyclohexyl)-2-morpholin-4-yl-isonicotinamide]	2.46 nM	–
O=C(N[C@H]1CC[C@H](CCN2CCC(c3noc4ccc(F)cc34)CC2)CC1)c1ccc2c(c1)OCO2 [Example 30, Benzo[1,3]dioxole-5-carboxylic acid trans (4-{2-[4-(5-fluoro-benzo[d]isoxazol-3-yl)-piperidin-1-yl]-ethyl}-cyclohexyl)-amide]	11.2 nM	–
O=C(CC1CCCCO1)N[C@H]1CC[C@H](CCN2CCC(c3noc4cc(Cl)ccc34)CC2)CC1 (stereo partly drawn) [Example 34, N-trans (4-{2-[4-(6-Chloro-benzo[d]isoxazol-3-yl)-piperidin-1-yl]-ethyl}-cyclohexyl)-2-(tetrahydro-pyran-2-yl)-acetamide]	5.83 nM	–
O=C(C[C@@H]1CCCCO1)N[C@H]1CC[C@H](CCN2CCC(c3noc4cc(Cl)ccc34)CC2)CC1 [Example 34A, N-trans (4-{2-[4-(6-Chloro-benzo[d]isoxazol-3-yl)-piperidin-1-yl]-ethyl}-cyclohexyl)-2-(R)-tetrahydro-pyran-2-yl-acetamide]	13.7 nM	–
O=C(C[C@H]1CCCCO1)N[C@H]1CC[C@H](CCN2CCC(c3noc4cc(Cl)ccc34)CC2)CC1 [Example 34B, N-trans (4-{2-[4-(6-Chloro-benzo[d]isoxazol-3-yl)-piperidin-1-yl]-ethyl}-cyclohexyl)-2-(S)-tetrahydro-pyran-2-yl-acetamide]	15.3 nM	–
